pEC50, pIC50: −log10 of the molar value.

The values that follow come from US10669240B2, “5-substituted indazole-3-carboxamides and preparation and use thereof” (Samumed, LLC, priority 2014, dated 2020).

Assay type in all cases: cell-based
Assay [1] relates to primary human mesenchymal stem cells (hMSCs). Kind of assay: Chondrogenesis assay in primary human mesenchymal stem cells, nodule count vs TGF-β3 positive control. The note with it: 6 days; for Conc (nM) of Max. activity: 6-point dose-response 2700 nM to 10 nM, dose at which maximum chondrogenesis activity was reached; for Max. Activity as % TGF-β3 activity: relative to TGF-β3 (10 ng/mL) positive control; for Conc (nM) of 100% TGF-β3 activity: concentration required to induce chondrogenesis equivalent to TGF-β3 (10 ng/mL). An excerpt: The above synthesized compounds were screened using primary human mesenchymal stem cells (hMSCs) to determine their ability to induce chondrogenesis (process by which cartilage is developed).
Human Mesenchymal Stem Cell Culture:
Primary human mesenchymal stem cells (hMSCs) were purchased from Lonza (Walkersville, Md.) and expanded in Mesenchymal Stem Cell Growth Media (Lonza). Cells between passage 3 and 6 were used for the experiments.
Number of nodules in each well was normalized to the average of 3 DMSO treated wells on the same plate using Excel (Microsoft Inc.). The normalized averages (fold change over DMSO) of 3 replicate wells for each compound concentration were calculated. Due to solubility limitations of some of the compounds, curve fitting was incomplete leading to inaccurate EC50 determinations.
Using TGF-β3 as a positive control, the concentration of test compounds required to induce equivalent levels of chondrogenesis is reported. In addition, the maximum activity of each compound and the respective dose that each compound reached maximum chondrogenesis activity is reported.

Another assay deals with DYRK1A (Homo sapiens (Human), UniProt Q13627). Description: DYRK1A activity Tau assay: pSer396 Tau in SH-SY5Y cells by ELISA / western blot. Particulars: overnight (16-18 h) exposure. (In an ELISA, binding on a coated surface is turned into a signal by an enzyme label.)
The test system of assay [2] is Wnt activity (Wnt-responsive SP5 promoter luciferase reporter in SW480 cells). Description: Wnt activity reporter assay: SW480 cells with SP5 promoter-driven firefly luciferase. The note with it: Homo sapiens, 24 h after compound addition, read-out: Wnt inhibition. In a few lines: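 SW480 cells (APC-mutant colon line) stably carrying a lentiviral SP5-promoter (eight TCF/LEF sites) firefly luciferase reporter were plated at ~10,000 cells/well. Luminescence was normalized to DMSO-only cells and used for IC50.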

In the case of `O=C(Nc1cccc2cccnc12)c1n[nH]c2ccc(-c3cccnc3)cc12` [Compound 43, 5-(Pyridin-3-yl)-N-(quinolin-8-yl)-1H-indazole-3-carboxamide], in assay [1], the “Conc (nM) of Max. activity” value came to 100 nM and the “Max. Activity as % TGF-β3 activity” value stood at 38%. Besides, the pEC50 at DYRK1A was 5.66.

Turning to `O=C(Nc1ccnc(C(F)(F)F)c1)c1n[nH]c2ccc(-c3cccnc3)cc12` [Compound 45, 5-(Pyridin-3-yl)-N-(2-(trifluoromethyl)pyridin-4-yl)-1H-indazole-3-carboxamide], in assay [1], the “Conc (nM) of Max. activity” value was determined as 900 nM, the “Conc (nM) of 100% TGF-β3 activity” value is 900 nM and the “Max. Activity as % TGF-β3 activity” value was 114%. On DYRK1A, the pEC50 is 7.42.

Regarding `O=C(Nc1ccc(N2CC(F)(F)C2)nc1)c1n[nH]c2ccc(-c3cncc(CN4CCCCC4)c3)cc12` [Compound 71, N-(6-(3,3-Difluoroazetidin-1-yl)pyridin-3-yl)-5-(5-(piperidin-1-ylmethyl)pyridin-3-yl)-1H-indazole-3-carboxamide], in assay [1], the “Conc (nM) of Max. activity” value was determined as 900 nM, the “Conc (nM) of 100% TGF-β3 activity” value turned out to be 900 nM and the “Max. Activity as % TGF-β3 activity” value is listed as 110%. In addition, the pEC50 at DYRK1A is 8.70.

For the compound `COc1cc(NC(=O)c2n[nH]c3ccc(-c4cncc(CN5CCCCC5)c4)cc23)ccn1` [Compound 78, N-(2-Methoxypyridin-4-yl)-5-(5-(piperidin-1-ylmethyl)pyridin-3-yl)-1H-indazole-3-carboxamide], in assay [1], the “Conc (nM) of Max. activity” value amounted to 900 nM and the “Max. Activity as % TGF-β3 activity” value was found to be 79%. Besides, the pEC50 at DYRK1A was 8.70.

For `CC(C)N1CCC(NC(=O)c2n[nH]c3ccc(-c4cccnc4)cc23)CC1` [Compound 90, N-(1-Isopropylpiperidin-4-yl)-5-(pyridin-3-yl)-1H-indazole-3-carboxamide], in assay [1], the “Conc (nM) of Max. activity” value was found to be 2700 nM, the “Conc (nM) of 100% TGF-β3 activity” value is recorded as 2700 nM and the “Max. Activity as % TGF-β3 activity” value worked out at 169%. The compound further showed a pEC50 on DYRK1A of 7.82.

For `CC(C)CN1CCC(NC(=O)c2n[nH]c3ccc(-c4cccnc4)cc23)CC1` [Compound 91, N-(1-Isobutylpiperidin-4-yl)-5-(pyridin-3-yl)-1H-indazole-3-carboxamide], in assay [1], the “Conc (nM) of Max. activity” value worked out at 2700 nM, the “Conc (nM) of 100% TGF-β3 activity” value is reported as 2700 nM and the “Max. Activity as % TGF-β3 activity” value was 120%. This compound gave a pEC50 on DYRK1A of 7.96.

For the compound `Cc1ncc(NC(=O)c2n[nH]c3ccc(-c4cccnc4)cc23)cn1` [Compound 97, N-(2-Methylpyrimidin-5-yl)-5-(pyridin-3-yl)-1H-indazole-3-carboxamide], in assay [1], the “Conc (nM) of Max. activity” value is reported as 2700 nM, the “Conc (nM) of 100% TGF-β3 activity” value amounted to 2700 nM and the “Max. Activity as % TGF-β3 activity” value is 98%. The compound further showed a pEC50 at DYRK1A of 6.25.

Take `Cc1ncc(NC(=O)c2n[nH]c3ccc(-c4cncc(CN5CCCCC5)c4)cc23)cn1` [Compound 98, N-(2-Methylpyrimidin-5-yl)-5-(5-(piperidin-1-ylmethyl)pyridin-3-yl)-1H-indazole-3-carboxamide]: in assay [1], the “Conc (nM) of Max. activity” value is reported as 2700 nM, the “Conc (nM) of 100% TGF-β3 activity” value is 2700 nM and the “Max. Activity as % TGF-β3 activity” value is given as 161%. For the same compound, the pEC50 on DYRK1A is 9.00.

Consider `O=C(Nc1cccnc1)c1n[nH]c2cc(F)c(-c3cccnc3)cc12` [Compound 99, 6-Fluoro-N,5-di(pyridin-3-yl)-1H-indazole-3-carboxamide], for which, in assay [1], the “Conc (nM) of Max. activity” value came out at 2700 nM and the “Max. Activity as % TGF-β3 activity” value turned out to be 64%. At DYRK1A, this compound showed a pEC50 of 6.06.

`O=C(Nc1ccnc(N2CCCCC2)c1)c1n[nH]c2ccc(-c3cccnc3)cc12` [Compound 103, N-(2-(Piperidin-1-yl)pyridin-4-yl)-5-(pyridin-3-yl)-1H-indazole-3-carboxamide]: in assay [1], the “Conc (nM) of Max. activity” value is 2700 nM, the “Conc (nM) of 100% TGF-β3 activity” value came to 2700 nM and the “Max. Activity as % TGF-β3 activity” value was 130%. The pEC50 on DYRK1A was 8.30.

With `CC(C)NC(=O)c1n[nH]c2ccc(-c3cncc(CN4CCCC4)c3)cc12` [Compound 129, N-Isopropyl-5-(5-(pyrrolidin-1-ylmethyl)pyridin-3-yl)-1H-indazole-3-carboxamide], in assay [1], the “Conc (nM) of Max. activity” value is 2700 nM, the “Conc (nM) of 100% TGF-β3 activity” value stood at 2700 nM and the “Max. Activity as % TGF-β3 activity” value worked out at 108%. This compound showed a pEC50 on DYRK1A of 7.38.

Turning to `O=C(NC1CCCCC1)c1n[nH]c2ccc(-c3cncc(N4CCCC4)c3)cc12` [Compound 200, N-Cyclohexyl-5-(5-(pyrrolidin-1-yl)pyridin-3-yl)-1H-indazole-3-carboxamide], in assay [1], the “Conc (nM) of Max. activity” value amounted to 2700 nM, the “Conc (nM) of 100% TGF-β3 activity” value turned out to be 2700 nM and the “Max. Activity as % TGF-β3 activity” value was determined as 138%. Moreover, the pEC50 at DYRK1A was 7.24.

For `C#CCN1CCC(NC(=O)c2n[nH]c3ccc(-c4cccc(F)c4F)cc23)CC1` [Compound 367, 5-(2,3-Difluorophenyl)-N-(1-(prop-2-yn-1-yl)piperidin-4-yl)-1H-indazole-3-carboxamide], in assay [1], the “Conc (nM) of Max. activity” value stood at 2700 nM and the “Max. Activity as % TGF-β3 activity” value is 65%. In addition, the pEC50 on DYRK1A was 7.46.

For the compound `O=C(Nc1cccnc1)c1n[nH]c2cc(F)c(-c3cncc(CN4CCCCC4)c3)cc12` [Compound 1153, 6-Fluoro-5-(5-(piperidin-1-ylmethyl)pyridin-3-yl)-N-(pyridin-3-yl)-1H-indazole-3-carboxamide], in assay [1], the “Conc (nM) of Max. activity” value was 2700 nM, the “Conc (nM) of 100% TGF-β3 activity” value was 900 nM and the “Max. Activity as % TGF-β3 activity” value was found to be 146%. This compound also gave a pEC50 on DYRK1A of 9.00.

Turning to `O=C(NC1CC1)c1n[nH]c2ccc(-c3cncnc3)cc12` [Compound 1269, N-Cyclopropyl-5-(pyrimidin-5-yl)-1H-indazole-3-carboxamide], in assay [1], the “Conc (nM) of Max. activity” value stood at 2700 nM and the “Max. Activity as % TGF-β3 activity” value was 53%. The pEC50 on DYRK1A is 7.12.

As for `CC(C)N1CCC(NC(=O)c2n[nH]c3ccc(-c4cncc(Cl)c4)cc23)CC1` [Compound 1305, 5-(5-Chloropyridin-3-yl)-N-(1-isopropylpiperidin-4-yl)-1H-indazole-3-carboxamide], in assay [1], the “Conc (nM) of Max. activity” value came to 2700 nM, the “Conc (nM) of 100% TGF-β3 activity” value stood at 2700 nM and the “Max. Activity as % TGF-β3 activity” value is 121%. Moreover, the pEC50 on DYRK1A is 6.91.

Take `Cc1cc2[nH]nc(C(=O)Nc3ccc(CN4CCCC4)cc3)c2cc1-c1cccnc1` [Compound 1331, 6-Methyl-5-(pyridin-3-yl)-N-(4-(pyrrolidin-1-ylmethyl)phenyl)-1H-indazole-3-carboxamide]: in assay [2], the pIC50 was 5.85. Moreover, the pEC50 on DYRK1A was 7.77.

As for `O=C(Nc1cc(CN2CCCC2)ccc1Cl)c1n[nH]c2ccc(-c3cccnc3)cc12` [Compound 1333, N-(2-Chloro-5-(pyrrolidin-1-ylmethyl)phenyl)-5-(pyridin-3-yl)-1H-indazole-3-carboxamide], in assay [2], the pIC50 was 5.29. Moreover, the pEC50 on DYRK1A is 8.05.

On to `COc1ccc(NC(=O)c2n[nH]c3ccc(-c4cncc(N5CC(N)C5)n4)cc23)cn1` [Compound 1334, 5-(6-(3-Aminoazetidin-1-yl)pyrazin-2-yl)-N-(6-methoxypyridin-3-yl)-1H-indazole-3-carboxamide], for which, in assay [2], the pIC50 was 5.82. The pEC50 at DYRK1A is 8.70.

As to `CN1CCC(NC(=O)c2n[nH]c3ccc(-c4cnccc4C(F)(F)F)cc23)CC1` [Compound 1340, N-(1-Methylpiperidin-4-yl)-5-(4-(trifluoromethyl)pyridin-3-yl)-1H-indazole-3-carboxamide], the pIC50 in assay [2] was 5.74. At DYRK1A, this compound had a pEC50 of 5.60.

As to `O=C(Nc1ccc(F)cc1)c1n[nH]c2ccc(-c3cncc(F)c3)cc12` [Compound 1341, N-(4-Fluorophenyl)-5-(5-fluoropyridin-3-yl)-1H-indazole-3-carboxamide], in assay [2], the pIC50 is 5.32. This compound showed a pEC50 at DYRK1A of 7.44.

For `CC(C)(C)CN1CCC(NC(=O)c2n[nH]c3cc(F)c(-c4cccnc4)cc23)CC1` [Compound 1342, 6-Fluoro-N-(1-neopentylpiperidin-4-yl)-5-(pyridin-3-yl)-1H-indazole-3-carboxamide], the pIC50 in assay [2] was 5.85. Further, the pEC50 at DYRK1A is 7.89.

For `O=C(Nc1ccccn1)c1n[nH]c2cc(F)c(-c3cncc(CN4CCCCC4)c3)cc12` [Compound 1343, 6-Fluoro-5-(5-(piperidin-1-ylmethyl)pyridin-3-yl)-N-(pyridin-2-yl)-1H-indazole-3-carboxamide], in assay [1], the “Conc (nM) of Max. activity” value stood at 2700 nM and the “Max. Activity as % TGF-β3 activity” value came to 67%. For the same compound, the pEC50 at DYRK1A was 8.70.

Take `NC1CN(c2cncc(-c3ccc4[nH]nc(C(=O)Nc5cncc(-c6cccc(F)c6)c5)c4c3)n2)C1` [Compound 1344, 5-(6-(3-Aminoazetidin-1-yl)pyrazin-2-yl)-N-(5-(3-fluorophenyl)pyridin-3-yl)-1H-indazole-3-carboxamide]: the pIC50 in assay [2] was 5.53. Besides, the pEC50 at DYRK1A was 7.82.

A word on the pEC50: it is the EC50 on a negative log10 scale, so that one unit is a factor of ten.
